Target: human TASK-1 (Homo sapiens, UniProt O14649)
Assay: Whole-cell patch-clamp in transfected HEK-293 cells, TASK-1
Format: cell-based
Set-up: human TASK-1 (KCNK3, NM_002246); expressed in transfected cells
Settings: HEK293, +40 mV
Protocol: The human embryonic kidney 293 (HEK-293) cell line was obtained from the American Type Culture Collection. HEK-293 cells were cultured in Dulbecco’s modified Eagle’s medium (DMEM-F12, Invitrogen Life Technologies) supplemented with 5% (v/v) fetal bovine serum (FBS) (Thermo Fisher Scientific) and 1% antibiotics (penicillin 100 U/ml y streptomycin 100 μg/ml) (Gibco, Thermo Fisher). The cells were maintained at 37 °C and 5% CO2 atmosphere.
For the electrophysiological experiments, HEK-293 cells were transiently transfected with cDNA encoding human NaV1.5 (plasmid 145,374, Addgene), KV1.5 (NM_002234), and TASK-1 (NM_002246). […] The cells were incubated for 4 h in transfection medium OptiMEM (Invitrogen). […]
For Nav1.5, the effect of 6f at both concentrations was tested using a repetitive single test voltage pulse at −10 mV (during 20 ms) from a holding potential of −80 mV, with intervals of 5s between pulses. For Kv1.5 and TASK-1, ramp voltage protocols were applied with pulse intervals of 20 s, and the currents were analyzed at +40 mV. […]
After recording currents with stable amplitudes, the cells were treated with 6f and applied from the bath solution. Currents were continuously recorded during repetitive pulses until a stable effect was achieved. […] The inhibition percentage was calculated as follows: Inℎibition (%) = 100 ∗ (Icontrol − Idrug)/Icontrol.

Chain of human TASK-1 (O14649 whole entry): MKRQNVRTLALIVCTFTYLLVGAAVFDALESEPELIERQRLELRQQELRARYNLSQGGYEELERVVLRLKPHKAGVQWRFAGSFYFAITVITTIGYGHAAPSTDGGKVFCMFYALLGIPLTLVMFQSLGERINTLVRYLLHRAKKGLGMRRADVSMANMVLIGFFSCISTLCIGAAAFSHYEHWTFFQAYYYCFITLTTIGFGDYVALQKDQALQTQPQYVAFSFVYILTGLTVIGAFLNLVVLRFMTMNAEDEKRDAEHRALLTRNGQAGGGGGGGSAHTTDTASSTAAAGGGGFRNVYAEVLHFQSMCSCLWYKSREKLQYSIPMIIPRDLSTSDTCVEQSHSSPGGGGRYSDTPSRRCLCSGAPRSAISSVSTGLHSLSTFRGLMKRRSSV

inhibition at 10 µM (10 μM): 70%
inhibition at 100 µM (100 μM): 70%
Compound: CCCCN(CCCC)CC(=O)Nc1ccc(OC)cc1OC [Compound 6f, 2-(dibutylamine)-N-(2,4-dimethoxiphenyl)acetamide]

From paper PMC12131194, “Rational design, synthesis, and evaluation of novel polypharmacological compounds targeting NaV1.5, KV1.5, and K2P channels for atrial fibrillation” (The Journal of Biological Chemistry, 2025)
